The source of these data is US20170202932A1, “METHODS FOR INHIBITING NEURON APOPTOSIS AND NECROSIS” (NEWSOUTH INNOVATIONS PTY LIMITED, priority 2012, published 2017).

Assay [1] addresses T1, recombinant mouse TRPC3b channels (Mus musculus, UniProt Q9QZC1, R524G).
T1 construct: Full length mouse TRPC3 transcripts were obtained by PCR; expressed in transfected cells; host or cells: HEK293 cells stably expressing TRPC3b, additionally transfected with mGluR1-eYFP cDNA
T1 sequence (Q9QZC1 75-910 R524G): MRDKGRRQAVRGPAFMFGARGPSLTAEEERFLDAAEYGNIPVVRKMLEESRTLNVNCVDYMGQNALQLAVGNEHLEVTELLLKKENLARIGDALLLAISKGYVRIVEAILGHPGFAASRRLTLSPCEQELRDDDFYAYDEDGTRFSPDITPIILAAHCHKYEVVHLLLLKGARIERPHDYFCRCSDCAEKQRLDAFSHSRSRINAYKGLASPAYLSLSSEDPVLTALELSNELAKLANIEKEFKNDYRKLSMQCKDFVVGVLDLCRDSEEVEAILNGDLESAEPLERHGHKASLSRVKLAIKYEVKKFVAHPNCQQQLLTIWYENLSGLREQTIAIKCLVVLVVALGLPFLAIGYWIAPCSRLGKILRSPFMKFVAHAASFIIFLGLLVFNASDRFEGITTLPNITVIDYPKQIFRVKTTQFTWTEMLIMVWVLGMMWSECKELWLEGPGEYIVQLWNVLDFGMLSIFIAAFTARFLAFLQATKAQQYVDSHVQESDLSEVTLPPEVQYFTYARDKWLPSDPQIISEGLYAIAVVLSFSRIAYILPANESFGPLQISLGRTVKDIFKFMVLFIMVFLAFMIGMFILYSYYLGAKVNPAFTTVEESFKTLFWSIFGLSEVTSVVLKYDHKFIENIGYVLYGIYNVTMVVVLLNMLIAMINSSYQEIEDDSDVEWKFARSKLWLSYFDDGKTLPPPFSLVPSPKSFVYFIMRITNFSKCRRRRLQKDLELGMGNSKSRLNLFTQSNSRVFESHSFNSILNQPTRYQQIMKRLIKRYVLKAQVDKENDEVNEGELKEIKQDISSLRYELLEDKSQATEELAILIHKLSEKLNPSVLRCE
Description: Fluo-4 Ca2+ imaging of DHPG-activated Ca2+ entry, HEK293 cells co-expressing TRPC3b and mGluR1. It counts as cell-based. The note with it: genistein 200 μM pre-application, n=6, without genistein 1.56±0.0713. The procedure: (§1) The TRPC3-mediated Ca^2+ entry through two distinct activation pathways was assessed by microfluorometric Ca^2+ imaging: i) Ca^2+ entry via the M3 receptor-PLCB-DAG pathway endogenous to HEK293 cells, using Indo-1 as a Ca^2+ indicator; and ii) Ca^2+ entry via mGluR1-PLCB-DAG through co-expression of the mGluR1, using Fluo-4 as a Ca^2+ indicator.
(§2) Cells were grown in DMEM media on 18 mm circular coverslips coated with poly-D-lysine (25 μg/ml) and collagen (25 μg/ml) at 1:1 ratio. The cells were washed with HPSS. The coverslips were then incubated with HPSS and 0.1% pluronic acid, along with either 1 μM Indo-1AM or Fluo-4AM Ca^2+ indicator (Invitrogen, U.S.A.) for an hour prior to the experiment. […]
(§3) For Fluo-4 experiments, the cells were mounted on an inverted microscope (DMIL, Leica) with a 20× 0.4NA objective (Leica HCX PL Fluotar), and illuminated with a mercury lamp using a GFP filter (part no. 11504164; excitation 470/40 nm, dichroic 500 nm, emission 525/50 nm) every 5 seconds (Andor iXon+ 885 EMCCD Camera, Ireland) with a gated shutter (Ludl Electronic Products, U.S.A.), controlled via Andor IQ (v1.8.1) software. The images were then analysed using Image J software (NIH, U.S.A.) with individual regions of interest (ROIs) identified for HEK293 cells responding to M3 or mGluR1 agonists with increased Ca^2+ signal. […]

The target of assay [2] is src tyrosine kinase (Homo sapiens, UniProt P12931). The note with it: cited from earlier work.
For assay [3], the target named is T2, recombinant mouse TRPC3c channels (Mus musculus, UniProt Q9QZC1, DEL811-838).
T2 construct: expressed in transfected cells; host or cells: HEK293 cells, stably transfected (pIRES-DsRed2 vector)
T2 sequence (Q9QZC1 with tags, fused parts or gaps DEL811-838): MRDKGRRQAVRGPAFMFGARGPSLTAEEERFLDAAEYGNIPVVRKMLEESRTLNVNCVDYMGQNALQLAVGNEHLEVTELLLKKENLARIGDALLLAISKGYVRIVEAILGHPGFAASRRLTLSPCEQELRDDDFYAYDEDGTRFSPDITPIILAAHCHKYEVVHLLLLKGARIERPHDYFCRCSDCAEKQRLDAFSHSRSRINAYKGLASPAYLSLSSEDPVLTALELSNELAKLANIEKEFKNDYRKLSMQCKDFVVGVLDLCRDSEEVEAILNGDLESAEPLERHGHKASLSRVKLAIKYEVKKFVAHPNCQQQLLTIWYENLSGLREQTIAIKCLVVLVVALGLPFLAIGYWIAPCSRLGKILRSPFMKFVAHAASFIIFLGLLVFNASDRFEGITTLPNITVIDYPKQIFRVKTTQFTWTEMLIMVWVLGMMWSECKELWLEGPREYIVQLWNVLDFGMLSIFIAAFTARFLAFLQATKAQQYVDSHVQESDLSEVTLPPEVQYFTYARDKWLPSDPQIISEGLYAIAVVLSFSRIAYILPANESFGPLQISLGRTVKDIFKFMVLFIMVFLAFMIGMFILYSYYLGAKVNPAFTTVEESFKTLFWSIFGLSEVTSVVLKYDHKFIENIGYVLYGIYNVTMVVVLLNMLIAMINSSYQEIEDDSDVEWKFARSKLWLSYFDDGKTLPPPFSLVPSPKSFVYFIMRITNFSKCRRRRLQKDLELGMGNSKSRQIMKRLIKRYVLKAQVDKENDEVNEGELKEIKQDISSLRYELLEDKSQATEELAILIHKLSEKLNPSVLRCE
Description: Fluo-4 Ca2+ imaging of DHPG-activated Ca2+ entry, HEK293 cells co-expressing TRPC3c and mGluR1. It counts as cell-based. The following applies: genistein 200 μM pre-application, n=6, without genistein 2.71±0.217. The method, then: as §1, §2, §3

Sequence of src tyrosine kinase (P12931 whole entry): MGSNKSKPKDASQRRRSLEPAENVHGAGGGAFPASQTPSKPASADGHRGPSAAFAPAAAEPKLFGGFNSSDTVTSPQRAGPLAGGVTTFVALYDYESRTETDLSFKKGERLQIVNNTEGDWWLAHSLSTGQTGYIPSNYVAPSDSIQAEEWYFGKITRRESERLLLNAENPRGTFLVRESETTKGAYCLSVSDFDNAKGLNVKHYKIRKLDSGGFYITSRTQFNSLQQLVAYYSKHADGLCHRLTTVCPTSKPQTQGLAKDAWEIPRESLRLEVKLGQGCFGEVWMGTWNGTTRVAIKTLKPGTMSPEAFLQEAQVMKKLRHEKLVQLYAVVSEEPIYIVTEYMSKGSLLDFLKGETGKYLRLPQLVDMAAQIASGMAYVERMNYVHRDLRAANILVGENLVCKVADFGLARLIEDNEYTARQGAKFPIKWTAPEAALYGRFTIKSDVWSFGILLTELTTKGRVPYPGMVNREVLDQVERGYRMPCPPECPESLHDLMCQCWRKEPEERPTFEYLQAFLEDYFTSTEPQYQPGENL

Turning to `O=c1c(-c2ccc(O)cc2)coc2cc(O)cc(O)c12` [genistein, 4′, 5,7-trihydroxyisoflavone], the “Fluo-4 fluorescence F/F0 (TRPC3-mediated Ca2+ entry after DHPG)” value in assay [1] is 1.031±0.0144; in assay [3] it was 0.876±0.0621. Further, the “src tyrosine kinase-mediated phosphorylation of TRPC3” value in assay [2] was “inhibit”.
